The nature of one series: Powder solubility test. In kind it is physicochemical. The conditions noted are these: pH 6.8, aqueous buffer, thermodynamic from solid, JP-2 solution, 37° C. Here is the method:
Appropriate quantity of the compound of the present invention was put in suitable containers. 200 μL of JP-1 solution (water was added to 2.0 g of sodium chloride and 7.0 mL of hydrochloric acid to reach 1000 mL), 200 μL of JP-2 solution (500 mL of water was added to 500 mL of phosphate buffer (pH 6.8)) or 20 mmol/L sodium taurocholate (TCA)/JP-2 solution (JP-2 solution was added to 1.08 g of TCA to reach 100 mL) was independently added to each container. When total amount was dissolved after adding the test reagent, the compound of the present invention was added appropriately. After sealing and shaking at 37° C. for 1 hour, solution was filtrated and 100 μL of methanol was added to 100 μL of each filtrate to dilute two-fold. The dilution ratio and the dilution solvent were changed as necessary. After checking that there was no bubble and deposit, the container was sealed and shaken. The compound of the present invention was measured using HPLC by absolute calibration curve method.

A further series has as its target recombinant human MGAT2 (Homo sapiens (Human), UniProt Q3SYC2). The series is described as follows: Measurement of human MGAT2 inhibitory activity. In kind it is biochemical. To be noted: concentration exhibiting 50% enzyme inhibition; recombinant human MGAT2, 2-Oleoylglycerol/Oleoyl-CoA. The procedure, abridged:
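Membrane fraction of baculovirus-infected Sf-9 cells expressing N-terminally Flag-tagged full-length human MGAT2, in 100 mmol/L phosphate pH 7.4 with 2 mmol/L DTT. The substrate solution held 30 μmol/L 2-oleoylglycerol and 10 μmol/L oleoyl-CoA. After 1 h at room temperature, diolein/diolein-d5 ratio was read by ESI Q-TOF MS and % inhibition derived against enzyme and no-enzyme controls.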

The values that follow come from patent US12227509B2, “Dihydropyrazolopyrazinone derivative having MGAT2 inhibitory activity” (Shionogi & Co., Ltd., priority 2019, dated 2025).

Converted amounts (≈) assume the structure as drawn.

recombinant human MGAT2, sequence (Q3SYC2 whole entry): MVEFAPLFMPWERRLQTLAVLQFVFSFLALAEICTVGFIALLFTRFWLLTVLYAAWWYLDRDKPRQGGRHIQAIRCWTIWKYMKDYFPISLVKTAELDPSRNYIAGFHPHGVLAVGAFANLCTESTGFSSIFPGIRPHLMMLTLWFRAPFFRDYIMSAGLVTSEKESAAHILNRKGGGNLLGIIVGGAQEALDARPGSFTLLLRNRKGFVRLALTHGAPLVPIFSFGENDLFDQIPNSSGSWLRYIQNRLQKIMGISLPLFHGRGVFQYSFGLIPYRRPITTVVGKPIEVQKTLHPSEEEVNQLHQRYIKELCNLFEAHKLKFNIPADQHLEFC

As for `CS(=O)(=O)CC(=O)Nc1c(CCC2CC2)nn2c1C(=O)N[C@@]1(CCc3cc(OCC(F)(F)F)ccc31)C2` [Compound I-46], the solubility at 1 h in the series “Powder solubility test” worked out at 8.64 µM (≈ 4.67 µg/mL). With `N#Cc1ccc(-c2nn3c(c2NC(=O)CC(F)(F)F)C(=O)N[C@@]2(CCc4cc(OCC(F)(F)F)ccc42)C3)nc1` [Compound I-14], the IC50 on recombinant human MGAT2 was 46.1 nM.

One may read the solubility as the concentration that dissolves in the medium under given conditions. The low end stands for a poorly soluble substance, the high end for a readily soluble substance. As usually defined, the IC50 is the point on the concentration scale where inhibition reaches its midpoint.
